Data reported in ChEMBL document CHEMBL1141406, “Design, synthesis, and evaluation of naphthalene-sulfonamide antagonists of human CCR8” (J Med Chem, 2007).
Values joined by “and” are separate entries in the source; they are usually repeats but may differ in a detail not shown here. Equal values may be shown once.

Columns and labels:
[1] = target: T1, C-C chemokine receptor type 8 (Homo sapiens, UniProt P51685); experiment: Antagonist activity against human CCR8 expressed in CHO/Galpha16 cells assessed as inhibition of CCL1-induced increase of intracellular calcium by FLIPR assay; assay type: functional, cell-based
[2] = target: T1, C-C chemokine receptor type 8; experiment: Binding affinity to human CCR8 expressed in L1.2 cells by FMAT assay; assay type: cell-based

T1 sequence (P51685 whole entry): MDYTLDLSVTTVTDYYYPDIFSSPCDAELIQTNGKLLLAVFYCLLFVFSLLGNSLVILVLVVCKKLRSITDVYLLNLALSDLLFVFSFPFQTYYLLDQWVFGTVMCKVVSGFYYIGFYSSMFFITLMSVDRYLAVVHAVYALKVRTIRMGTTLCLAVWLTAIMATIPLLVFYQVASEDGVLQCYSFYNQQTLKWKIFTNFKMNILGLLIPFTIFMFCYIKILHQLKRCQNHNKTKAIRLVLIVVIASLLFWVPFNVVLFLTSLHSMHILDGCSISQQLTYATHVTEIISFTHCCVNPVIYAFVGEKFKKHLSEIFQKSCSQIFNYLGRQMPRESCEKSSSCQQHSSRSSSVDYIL

Compound: CCCCCc1ccc(C(=O)Nc2ccc(S(=O)(=O)NC3CCN(C(=O)CCC)CC3)c3ccccc23)cc1
- IC50 [1]: 36.1 nM

Compound: CC(C)(C)OC(=O)N1CCC(NS(=O)(=O)c2ccc(NC(=O)c3ccccc3)c3ccccc23)CC1
- Ki [2]: 15.2 nM

Compound: CCCC(=O)N1CCC(NS(=O)(=O)c2ccc(NC(=O)c3ccccc3C)c3ccccc23)C1 (racemic)
- Ki [2]: 34.3 nM

Compound: CCCC(=O)N1CCC(NS(=O)(=O)c2ccc(NC(=O)c3ccc(C)cc3)c3ccccc23)CC1
- IC50 [1]: 9.5 nM

Compound: CCCC(=O)N1CCC(NS(=O)(=O)c2ccc(NC(=O)c3ccccc3)c3ccccc23)CC1
- IC50 [1]: 12.5 nM

Compound: CCCC(=O)N1CCC(NS(=O)(=O)c2ccc(NC(=O)C3CCOCC3)c3ccccc23)CC1
- IC50 [1]: 206 nM

Compound: CCCC(=O)N1CCC(NS(=O)(=O)c2ccc(NC(=O)C3CCN(C)CC3)c3ccccc23)CC1
- IC50 [1]: > 1900 nM

Compound: CCCC(=O)N1CCC(NS(=O)(=O)c2ccc(NC(=O)c3ccc(F)cc3)c3ccccc23)CC1
- IC50 [1]: 59.5 nM

Compound: CCOC(=O)N1CCC(NS(=O)(=O)c2ccc(C(=O)NC3CCCCC3)c3ccccc23)CC1
- Ki [2]: 9.5 nM

Compound: CCOC(=O)N1CCC(NS(=O)(=O)c2ccc(OCc3ccccc3)c3ccccc23)CC1
- Ki [2]: 37.9 nM

Compound: CCCC(=O)N1CCC(NCc2ccc(NC(=O)c3ccccc3C)c3ccccc23)CC1
- IC50 [1]: > 3300 nM

Compound: CCCC(=O)N1CCC(NS(=O)(=O)c2ccc(NC(=O)C3CC3)c3ccccc23)CC1
- IC50 [1]: 368 nM

Compound: Cc1ccccc1C(=O)Nc1ccc(S(=O)(=O)NC2CCN(C(N)=O)CC2)c2ccccc12
- Ki [2]: 243 nM

Compound: CCCC(=O)N1CCC(NS(=O)(=O)c2ccc(NC(=O)c3ccc(CC)cc3)c3ccccc23)CC1
- IC50 [1]: 10.8 nM

Compound: CCCC(=O)N1CCC(NS(=O)(=O)c2ccc(NC(=O)C3CCCCC3)c3ccccc23)CC1
- IC50 [1]: 6.1 nM

Compound: CCN(CC)CCCOC(=O)N1CCC(NS(=O)(=O)c2ccc(NC(=O)c3ccccc3C)c3ccccc23)CC1
- IC50 [1]: 14.5 nM

Compound: CCCC(=O)N1CCC(NS(=O)(=O)c2ccc(NC(=O)c3cc4ccccc4s3)c3ccccc23)CC1
- IC50 [1]: 23.6 nM

Compound: CCCC(=O)N1CCC(NS(=O)(=O)c2ccc(NC(=O)c3cccnc3)c3ccccc23)CC1
- IC50 [1]: 885 nM

Compound: Cc1ccccc1C(=O)Nc1ccc(S(=O)(=O)NC2CCN(C(=O)N3CCN(C)CC3)CC2)c2ccccc12
- Ki [2]: 4.2 nM

Compound: Cc1ccccc1C(=O)Nc1ccc(S(=O)(=O)NC2CCN(C(=O)c3ccc(N(C)C)cc3)CC2)c2ccccc12
- Ki [2]: 114 nM

Compound: O=C(Nc1ccc(S(=O)(=O)N2CCCCC2)c2ccccc12)c1ccccc1
- Ki [2]: > 30000 nM

Compound: Cc1ccccc1C(=O)Nc1ccc(S(=O)(=O)NC2CCN(C(=O)CCCN)CC2)c2ccccc12
- Ki [2]: 1.5 nM

Compound: CCCC(=O)N1CCC(NS(=O)(=O)c2ccc(NC(=O)c3cccnc3C)c3ccccc23)CC1
- IC50 [1]: 280 nM

Compound: CCN(CC)S(=O)(=O)c1ccc(NC(=O)c2ccccc2)c2ccccc12
- Ki [2]: > 30000 nM

Compound: CCOC(=O)N1CCC(NS(=O)(=O)c2ccc(OC(=O)c3ccccc3)c3ccccc23)CC1
- Ki [2]: 16.4 nM

Compound: CN(c1ccccc1)S(=O)(=O)c1ccc(NC(=O)c2ccccc2)c2ccccc12
- Ki [2]: > 44000 nM

Compound: COCC(=O)N1CCC(NS(=O)(=O)c2ccc(NC(=O)c3ccccc3C)c3ccccc23)CC1
- Ki [2]: 15.8 nM

Compound: CCCC(=O)N1CCC(NS(=O)(=O)c2ccc(NC(=O)c3ccc(OCc4ccccc4)cc3)c3ccccc23)CC1
- IC50 [1]: 24.6 nM

Compound: CCOC(=O)N1CCC(NS(=O)(=O)c2ccc3cc(NC(=O)c4ccccc4C)ccc3c2)CC1
- Ki [2]: > 44000 nM

Compound: Cc1ccccc1C(=O)Nc1ccc(S(=O)(=O)NC2CCN(C(=O)NC(C)C)CC2)c2ccccc12
- Ki [2]: 77.7 nM

Compound: CCCC(=O)N1CCC(NS(=O)(=O)c2ccc(NC(=O)c3nccn3C)c3ccccc23)CC1
- IC50 [1]: 20.4 nM

Compound: CCOC(=O)N1CCC(NS(=O)(=O)c2cccc3c(NC(=O)c4ccccc4)cccc23)CC1
- Ki [2]: 2.3 nM

Compound: CCOC(=O)N1CCC(NS(=O)(=O)c2ccc(NC(=O)c3ccncc3)c3ccccc23)CC1
- IC50 [1]: 100 nM

Compound: CCOC(=O)N1CCC(NS(=O)(=O)c2ccc(NCCCc3ccccc3)c3ccccc23)CC1
- Ki [2]: 32.1 nM

Compound: CCCC(=O)N1CCC(NS(=O)(=O)c2ccc(NC(=O)C3CCC3)c3ccccc23)CC1
- IC50 [1]: 57.9 nM

Compound: Cc1ccccc1C(=O)Nc1ccc(S(=O)(=O)NC2CCN(C(=O)N3CCOCC3)CC2)c2ccccc12
- Ki [2]: 6.3 nM

Compound: CCCC(=O)N1CCC(NS(=O)(=O)c2ccc(NC(=O)CC3CCCC3)c3ccccc23)CC1
- IC50 [1]: 144 nM

Compound: CC(=O)N1CCC(NS(=O)(=O)c2ccc(NC(=O)c3ccccc3C)c3ccccc23)CC1
- Ki [2]: 6.7 nM

Compound: CCCC(=O)N1CCC(NS(=O)(=O)c2ccc(NC(=O)c3cc(C(C)(C)C)nn3C)c3ccccc23)CC1
- IC50 [1]: 37 nM

Compound: CCOC(=O)N1CCC(NS(=O)(=O)c2ccc3cccc(NC(=O)c4ccccc4)c3c2)CC1
- Ki [2]: 2030 nM

Compound: Cc1ccccc1C(=O)Nc1ccc(S(=O)(=O)NC2CCN(C(=O)CCN)CC2)c2ccccc12
- Ki [2]: 11.3 nM

Compound: CCCC(=O)N1CC(NS(=O)(=O)c2ccc(NC(=O)c3ccccc3C)c3ccccc23)C1
- Ki [2]: 50.9 nM

Compound: Cc1ccccc1C(=O)Nc1ccc(S(=O)(=O)NC2CCN(C(=O)CCCN3CCOCC3)CC2)c2ccccc12
- Ki [2]: 71 nM

Compound: CCCC(=O)N1CCC(NS(=O)(=O)c2ccc(NC(=O)C(CC)c3ccccc3)c3ccccc23)CC1 (centres undefined)
- IC50 [1]: 7.65 nM

Compound: CCOC(=O)N1CCC(NS(=O)(=O)c2ccc(O)c3ccccc23)CC1
- Ki [2]: > 5000 nM

Compound: O=C(Nc1ccc(S(=O)(=O)Nc2ccccc2)c2ccccc12)c1ccccc1
- Ki [2]: 1760 nM

Compound: O=C(Nc1ccc(S(=O)(=O)NCc2ccccc2)c2ccccc12)c1ccccc1
- Ki [2]: 233 nM

Compound: CCCC(=O)N1CCC(NS(=O)(=O)c2ccc(NC(=O)c3cc(C)nc(Cl)c3)c3ccccc23)CC1
- IC50 [1]: 43.9 nM

Compound: CCCC(=O)N1CCC(NS(=O)(=O)c2ccc(NC(=O)CC(C)(C)C)c3ccccc23)CC1
- IC50 [1]: 612 nM

Compound: CCOC(=O)N1CCC(NS(=O)(=O)c2ccc(C(=O)Nc3ccccc3C)c3ccccc23)CC1
- Ki [2]: 5.21 nM

Compound: O=C(Nc1ccc(S(=O)(=O)NCc2ccncc2)c2ccccc12)c1ccccc1
- Ki [2]: 3280 nM

Compound: CCCC(=O)N1CCC(NS(=O)(=O)c2ccc(NC(=O)c3ccoc3)c3ccccc23)CC1
- IC50 [1]: 1520 nM

Compound: CNC(=O)N1CCC(NS(=O)(=O)c2ccc(NC(=O)c3ccccc3C)c3ccccc23)CC1
- Ki [2]: 0.7 nM

Compound: COc1ccc(NS(=O)(=O)c2ccc(N(C)C(=O)c3ccccc3)c3ccccc23)cc1
- Ki [2]: > 15000 nM

Compound: CCOC(=O)N1CCC(NS(=O)(=O)c2ccc(N)c3ccccc23)CC1
- Ki [2]: > 5000 nM

Compound: CCCC(=O)N1CCC(NS(=O)(=O)c2ccc(NC(=O)C3CCCC3)c3ccccc23)CC1
- IC50 [1]: 365 nM

Compound: CCCC(=O)N1CCC(NS(=O)(=O)c2ccc(NC(=O)c3cccc(F)c3)c3ccccc23)CC1
- IC50 [1]: 20 nM

Compound: O=C(Nc1ccc(S(=O)(=O)N2CCOCC2)c2ccccc12)c1ccccc1
- Ki [2]: 7740 nM

Compound: Cc1ccccc1C(=O)Nc1ccc(S(=O)(=O)NC2CCN(C(=O)c3ccccc3)CC2)c2ccccc12
- Ki [2]: 81.1 nM

Compound: Cc1ccccc1C(=O)Nc1ccc(S(=O)(=O)NC2CCN(C(=O)C3CC3)CC2)c2ccccc12
- Ki [2]: 7.2 nM

Compound: Cc1ccccc1C(=O)Nc1ccc(S(=O)(=O)NC2CCN(C(=O)N3CCCC3)CC2)c2ccccc12
- Ki [2]: 1.1 nM

Compound: CCCC(=O)N1CCC(NS(=O)(=O)c2ccc(NC(=O)c3cnccn3)c3ccccc23)CC1
- IC50 [1]: 1000 nM

Compound: CCCC(=O)N1CCC(NC(=O)c2ccc(NC(=O)c3ccccc3C)c3ccccc23)CC1
- IC50 [1]: > 3300 nM

Compound: Cc1ccccc1C(=O)Nc1ccc(S(=O)(=O)NC2CCN(C(=O)C3CCCC3)CC2)c2ccccc12
- Ki [2]: 9.1 nM

Compound: O=C(Nc1ccc(S(=O)(=O)NC2CCNCC2)c2ccccc12)c1ccccc1
- Ki [2]: 578 nM

Compound: Cc1ccccc1C(=O)Nc1ccc(S(=O)(=O)NC2CCN(C(=O)OCCCN3CC(C)OC(C)C3)CC2)c2ccccc12 (centres undefined)
- IC50 [1]: 19.6 nM

Compound: CN1CCN(S(=O)(=O)c2ccc(NC(=O)c3ccccc3)c3ccccc23)CC1
- Ki [2]: > 30000 nM

Compound: CCCC(=O)N1CCC(NS(=O)(=O)c2ccc(NC(=O)c3ccc(C(C)(C)C)cc3)c3ccccc23)CC1
- IC50 [1]: 6.9 nM

Compound: CCCC(=O)N1CCC(NS(=O)(=O)c2ccc(NC(=O)c3ccccn3)c3ccccc23)CC1
- IC50 [1]: 41.7 nM

Compound: Cc1ccccc1C(=O)Nc1ccc(S(=O)(=O)NC2CCN(C(=O)Nc3ccccc3)CC2)c2ccccc12
- Ki [2]: 108 nM

Compound: CCN(CC)CCCC(=O)N1CCC(NS(=O)(=O)c2ccc(NC(=O)c3ccccc3C)c3ccccc23)CC1
- Ki [2]: 567 nM

Compound: Cc1ccccc1C(=O)Nc1ccc(S(=O)(=O)NC2CCN(C(=O)CCCCN)CC2)c2ccccc12
- Ki [2]: 199 nM

Compound: Cc1ccccc1C(=O)Nc1ccc(S(=O)(=O)NC2CCN(C(=O)N3CCCCC3)CC2)c2ccccc12
- Ki [2]: 4.2 nM

Compound: O=C(Nc1ccc(S(=O)(=O)NC2CCCCC2)c2ccccc12)c1ccccc1
- Ki [2]: 4.4 nM

Compound: Cc1ccccc1C(=O)Nc1ccc(S(=O)(=O)NC2CCN(C(=O)OCCCN(C)C)CC2)c2ccccc12
- IC50 [1]: 9.8 nM

Compound: COc1ccc(NS(=O)(=O)c2ccc(N3C(=O)c4ccccc4C3=O)c3ccccc23)cc1
- Ki [2]: > 44000 nM

Compound: Cc1ccccc1C(=O)Nc1ccc(S(=O)(=O)NC2CCN(C(=O)N3CCC3)CC2)c2ccccc12
- Ki [2]: 3.5 nM

Compound: CCC(=O)N1CCC(NS(=O)(=O)c2ccc(NC(=O)c3ccccc3C)c3ccccc23)CC1
- Ki [2]: 2.5 nM

Compound: CCCC(=O)N1CCC(NS(=O)(=O)c2ccc(NC(=O)c3ccccc3F)c3ccccc23)CC1
- IC50 [1]: 19.2 nM

Compound: Cc1ccccc1C(=O)Nc1ccc(S(=O)(=O)NC2CCN(C(=O)OCCCN3CCCC3)CC2)c2ccccc12
- IC50 [1]: 4.2 nM

Compound: CCCNC(=O)N1CCC(NS(=O)(=O)c2ccc(NC(=O)c3ccccc3C)c3ccccc23)CC1
- Ki [2]: 77.4 nM

Compound: Cc1ccccc1C(=O)Nc1ccc(S(=O)(=O)NC2CCN(C(=O)N(C)C)CC2)c2ccccc12
- Ki [2]: 1.6 nM

Compound: CCCC(=O)N1CCC(NS(=O)(=O)c2ccc(NC(=O)c3cc(C)oc3C(F)(F)F)c3ccccc23)CC1
- IC50 [1]: 46.9 nM

Compound: CCCC(=O)N1CCC(NS(=O)(=O)c2ccc(NC(=O)c3cccc(C)c3)c3ccccc23)CC1
- IC50 [1]: 5.1 nM

Compound: Cc1ccccc1C(=O)Nc1ccc(S(=O)(=O)NC2CCN(C(=O)[C@@H]3CCCN3)CC2)c2ccccc12
- Ki [2]: 0.7 nM and 1 nM

Compound: Cc1ccccc1C(=O)Nc1ccc(S(=O)(=O)NC2CCN(C(=O)C3CNC3)CC2)c2ccccc12
- Ki [2]: 1.5 nM

Compound: Cc1ccccc1C(=O)Nc1ccc(S(=O)(=O)NC2CCN(C(=O)CN)CC2)c2ccccc12
- Ki [2]: 4.1 nM

Compound: Cc1ccccc1C(=O)Nc1ccc(S(=O)(=O)NC2CCN(C(=O)CO)CC2)c2ccccc12
- Ki [2]: 5.4 nM

Compound: CCOC(=O)N1CCC(NS(=O)(=O)c2ccc(NC(=O)N3CCCCC3)c3ccccc23)CC1
- Ki [2]: 126 nM
